Experimental data: patent US11400059B2, “Treatment of pain and/or pain related symptoms associated with dysmenorrhea” (ALYRA BIOTECH PTY LTD, priority 2017, dated 2022)

What was measured:
Experiment in all cases: Human TLR antagonist screening, NF-κB SEAP reporter in HEK293 cells
Assay type in all cases: cell-based
hTLR5 = molecular target: T1, hTLR5 (Homo sapiens, UniProt O60602); conditions: antagonist mode, test article 1 μM, +FLA-ST 50 ng/ml, No Sample 34, Control− 1
T1 construct: expressed in transfected cells; host or cells: HEK293
T1 sequence (O60602 21-858): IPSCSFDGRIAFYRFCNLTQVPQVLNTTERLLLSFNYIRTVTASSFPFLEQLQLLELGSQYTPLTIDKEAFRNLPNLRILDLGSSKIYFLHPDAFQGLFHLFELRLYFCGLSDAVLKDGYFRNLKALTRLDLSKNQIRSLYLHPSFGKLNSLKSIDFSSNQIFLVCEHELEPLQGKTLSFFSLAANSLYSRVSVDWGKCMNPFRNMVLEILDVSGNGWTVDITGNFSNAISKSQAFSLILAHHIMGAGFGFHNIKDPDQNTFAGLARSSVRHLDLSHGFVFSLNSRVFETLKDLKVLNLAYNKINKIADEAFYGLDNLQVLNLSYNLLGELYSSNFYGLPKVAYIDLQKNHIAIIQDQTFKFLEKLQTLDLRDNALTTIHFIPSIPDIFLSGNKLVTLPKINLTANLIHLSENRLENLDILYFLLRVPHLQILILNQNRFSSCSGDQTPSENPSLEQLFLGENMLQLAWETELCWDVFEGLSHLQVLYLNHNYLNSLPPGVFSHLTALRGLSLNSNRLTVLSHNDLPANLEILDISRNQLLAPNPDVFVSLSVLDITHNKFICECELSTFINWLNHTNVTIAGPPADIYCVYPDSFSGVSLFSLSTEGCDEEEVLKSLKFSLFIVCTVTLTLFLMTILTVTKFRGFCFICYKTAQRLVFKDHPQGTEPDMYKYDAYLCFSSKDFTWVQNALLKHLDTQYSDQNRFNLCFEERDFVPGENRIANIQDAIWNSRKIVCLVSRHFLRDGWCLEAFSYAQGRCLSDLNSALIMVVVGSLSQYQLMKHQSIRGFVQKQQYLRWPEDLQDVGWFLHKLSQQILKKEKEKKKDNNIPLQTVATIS
Protocol: Toll-Like Receptor (TLR), NOD-Like Receptor (NLR) and C-Type Lectin Receptor (CLR) stimulation were tested by assessing NF-κB activation in HEK293 cells expressing a given TLR, NLR or CLR. The activity of the test articles was tested at one concentration and compared to control ligands. These steps were performed in triplicate. […] In a 96-well plate (200 μL total volume) containing the appropriate cells (50,000-75,000 cells/well), 20 μL of the test article or the positive control ligand was added to the wells. For the antagonist assay, the test article was incubated with the cells, at 37° C. with 5% CO2, for 30 minutes prior to the addition of the positive control ligand to the wells. The media added to the wells was designed for the detection of NF-κB induced SEAP expression. […] Fold induction (ratio of average induced value to average non-induced value) was determined for each TLR, NOD1, NOD2, Dectin-1a, Dectin-1b.

Human TLR4 = molecular target: T2, Human TLR4 (Homo sapiens, UniProt O00206+Q9Y6Y9); conditions: antagonist mode, test article 1 μM, +LPS-EK 10 ng/mL, No Sample 14, Control− 1
T2 construct: expressed in transfected cells; host or cells: HEK293
T2 sequence (O00206 24-839): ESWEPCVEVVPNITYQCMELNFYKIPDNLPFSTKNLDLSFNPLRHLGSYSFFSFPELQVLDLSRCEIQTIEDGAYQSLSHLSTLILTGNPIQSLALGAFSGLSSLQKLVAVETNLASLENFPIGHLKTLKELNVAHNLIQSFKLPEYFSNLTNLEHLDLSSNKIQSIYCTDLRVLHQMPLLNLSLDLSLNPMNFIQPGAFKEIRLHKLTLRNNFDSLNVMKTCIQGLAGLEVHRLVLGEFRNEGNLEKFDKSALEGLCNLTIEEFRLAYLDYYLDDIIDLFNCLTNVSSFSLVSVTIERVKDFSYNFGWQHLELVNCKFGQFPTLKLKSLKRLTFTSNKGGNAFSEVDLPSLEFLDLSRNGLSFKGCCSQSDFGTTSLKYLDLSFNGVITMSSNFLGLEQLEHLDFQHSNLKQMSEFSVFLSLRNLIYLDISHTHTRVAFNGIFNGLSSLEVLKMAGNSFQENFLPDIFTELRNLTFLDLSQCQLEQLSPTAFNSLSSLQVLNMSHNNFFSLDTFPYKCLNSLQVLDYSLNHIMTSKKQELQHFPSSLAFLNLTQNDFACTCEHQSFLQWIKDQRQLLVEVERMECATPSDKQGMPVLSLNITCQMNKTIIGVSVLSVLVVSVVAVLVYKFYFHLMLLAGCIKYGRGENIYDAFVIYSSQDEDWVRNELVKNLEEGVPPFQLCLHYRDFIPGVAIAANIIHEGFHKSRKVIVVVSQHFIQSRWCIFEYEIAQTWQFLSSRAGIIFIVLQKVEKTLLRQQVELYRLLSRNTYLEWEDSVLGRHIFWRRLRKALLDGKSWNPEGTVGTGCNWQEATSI
T2 sequence (Q9Y6Y9 19-160): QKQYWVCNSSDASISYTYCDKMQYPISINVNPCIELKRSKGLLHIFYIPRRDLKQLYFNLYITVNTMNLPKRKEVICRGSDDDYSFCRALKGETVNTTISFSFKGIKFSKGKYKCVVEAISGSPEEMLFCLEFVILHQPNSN
Protocol: Toll-Like Receptor (TLR), NOD-Like Receptor (NLR) and C-Type Lectin Receptor (CLR) stimulation were tested by assessing NF-κB activation in HEK293 cells expressing a given TLR, NLR or CLR. The activity of the test articles was tested at one concentration and compared to control ligands. These steps were performed in triplicate. hTLR4: […] In a 96-well plate (200 μL total volume) containing the appropriate cells (50,000-75,000 cells/well), 20 μL of the test article or the positive control ligand was added to the wells. For the antagonist assay, the test article was incubated with the cells, at 37° C. with 5% CO2, for 30 minutes prior to the addition of the positive control ligand to the wells. The media added to the wells was designed for the detection of NF-κB induced SEAP expression. After a 16-24 hr incubation the optical density (OD) was read at 650 nm on a Molecular Devices SpectraMax 340PC absorbance detector. Fold induction (ratio of average induced value to average non-induced value) was determined for each TLR, NOD1, NOD2, Dectin-1a, Dectin-1b.

hTLR7 = molecular target: T3, hTLR7 (Homo sapiens, UniProt Q9NYK1); conditions: antagonist mode, test article 1 μM, +CL307 10 ng/ml, No Sample 13, Control− 1
T3 construct: expressed in transfected cells; host or cells: HEK293
T3 sequence (Q9NYK1 27-1049): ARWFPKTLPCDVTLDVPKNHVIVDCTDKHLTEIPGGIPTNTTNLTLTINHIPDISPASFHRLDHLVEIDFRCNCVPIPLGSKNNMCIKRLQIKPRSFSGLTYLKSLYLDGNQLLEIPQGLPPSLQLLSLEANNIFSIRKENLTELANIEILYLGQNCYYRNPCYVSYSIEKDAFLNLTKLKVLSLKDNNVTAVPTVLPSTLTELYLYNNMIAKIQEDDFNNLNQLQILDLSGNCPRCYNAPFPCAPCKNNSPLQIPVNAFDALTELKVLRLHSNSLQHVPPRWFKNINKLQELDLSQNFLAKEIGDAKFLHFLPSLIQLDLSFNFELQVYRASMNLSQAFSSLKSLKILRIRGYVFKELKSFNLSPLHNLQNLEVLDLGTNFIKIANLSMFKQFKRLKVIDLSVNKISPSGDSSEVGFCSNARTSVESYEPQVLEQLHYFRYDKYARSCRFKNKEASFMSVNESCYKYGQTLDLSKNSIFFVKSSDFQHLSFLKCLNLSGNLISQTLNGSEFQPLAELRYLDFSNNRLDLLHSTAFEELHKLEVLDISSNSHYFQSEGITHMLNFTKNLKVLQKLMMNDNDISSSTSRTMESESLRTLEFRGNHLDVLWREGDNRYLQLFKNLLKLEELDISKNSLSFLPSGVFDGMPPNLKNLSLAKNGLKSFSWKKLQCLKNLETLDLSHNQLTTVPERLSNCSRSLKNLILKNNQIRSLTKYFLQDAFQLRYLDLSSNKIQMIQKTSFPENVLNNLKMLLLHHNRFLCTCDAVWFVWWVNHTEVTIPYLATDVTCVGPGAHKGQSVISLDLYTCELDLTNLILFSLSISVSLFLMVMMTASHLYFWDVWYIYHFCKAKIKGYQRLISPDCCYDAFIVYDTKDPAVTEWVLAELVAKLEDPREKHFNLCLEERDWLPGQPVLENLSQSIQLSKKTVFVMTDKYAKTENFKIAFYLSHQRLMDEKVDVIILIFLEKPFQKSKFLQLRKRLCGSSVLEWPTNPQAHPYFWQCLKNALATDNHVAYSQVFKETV
Protocol: Toll-Like Receptor (TLR), NOD-Like Receptor (NLR) and C-Type Lectin Receptor (CLR) stimulation were tested by assessing NF-κB activation in HEK293 cells expressing a given TLR, NLR or CLR. The activity of the test articles was tested at one concentration and compared to control ligands. These steps were performed in triplicate. hTLR7: CL307 at 1 μg/mL Antagonist: 10 ng/mL. In a 96-well plate (200 μL total volume) containing the appropriate cells (50,000-75,000 cells/well), 20 μL of the test article or the positive control ligand was added to the wells. For the antagonist assay, the test article was incubated with the cells, at 37° C. with 5% CO2, for 30 minutes prior to the addition of the positive control ligand to the wells. The media added to the wells was designed for the detection of NF-κB induced SEAP expression. […] Fold induction (ratio of average induced value to average non-induced value) was determined for each TLR, NOD1, NOD2, Dectin-1a, Dectin-1b.

Row | SMILES | Fold Induction (hTLR5) | Fold Induction (Human TLR4) | Fold Induction (hTLR7) | Fold Induction (hTLR7; listed as Nor) | Fold Induction (hTLR5; listed as Ami) | Fold Induction (Human TLR4; listed as Ami) | Fold Induction (hTLR7; listed as Ami)
1 | CNCCC=C1c2ccccc2CCc2ccccc21 [Nortriptyline] | 34 | 14 | slight potentiating | 16 | – | – | –
2 | CN(C)CCC=C1c2ccccc2CCc2ccccc21 [Amitriptyline] | slight inhibitory effect | slight inhibitory effect | slight potentiating effect | – | 33 | 12 | 16
